From paper PMC8213057, “Targeting ALK2: An Open Science Approach to Developing Therapeutics for the Treatment of Diffuse Intrinsic Pontine Glioma” (Journal of Medicinal Chemistry, 2020)

Columns and labels:
[1] = target: CDK9/cyclin T2 (Homo sapiens, UniProt P50750); assay: biochemical; settings: read-out: % enzyme activity, 1 μM; Run 1, Run 2
[2] = target: CDK5/p35 (Homo sapiens, UniProt Q00535); assay: biochemical; settings: read-out: % enzyme activity, 1 μM; Run 1, Run 2
[3] = target: T1, NEK3 (Homo sapiens, UniProt P51956); settings: 1 μM; Run 1, Run 2
T1 sequence (P51956 1-506): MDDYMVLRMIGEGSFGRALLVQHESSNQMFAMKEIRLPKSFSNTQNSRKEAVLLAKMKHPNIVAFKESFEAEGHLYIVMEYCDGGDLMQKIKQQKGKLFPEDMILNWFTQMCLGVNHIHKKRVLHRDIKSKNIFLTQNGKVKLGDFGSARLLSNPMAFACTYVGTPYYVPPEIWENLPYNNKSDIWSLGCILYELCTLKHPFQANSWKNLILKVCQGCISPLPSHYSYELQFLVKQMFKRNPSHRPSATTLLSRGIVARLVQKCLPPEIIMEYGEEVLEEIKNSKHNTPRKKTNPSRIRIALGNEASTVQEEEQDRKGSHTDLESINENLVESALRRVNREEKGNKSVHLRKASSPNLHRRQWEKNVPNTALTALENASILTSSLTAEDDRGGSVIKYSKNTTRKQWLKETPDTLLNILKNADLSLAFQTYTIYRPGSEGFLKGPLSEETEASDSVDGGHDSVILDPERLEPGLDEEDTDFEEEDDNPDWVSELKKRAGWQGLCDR

[4] = target: T2, EPHB4 (Homo sapiens, UniProt P54760); assay: biochemical; settings: read-out: % enzyme activity, 1 μM; Run 1, Run 2
T2 sequence (P54760 16-987): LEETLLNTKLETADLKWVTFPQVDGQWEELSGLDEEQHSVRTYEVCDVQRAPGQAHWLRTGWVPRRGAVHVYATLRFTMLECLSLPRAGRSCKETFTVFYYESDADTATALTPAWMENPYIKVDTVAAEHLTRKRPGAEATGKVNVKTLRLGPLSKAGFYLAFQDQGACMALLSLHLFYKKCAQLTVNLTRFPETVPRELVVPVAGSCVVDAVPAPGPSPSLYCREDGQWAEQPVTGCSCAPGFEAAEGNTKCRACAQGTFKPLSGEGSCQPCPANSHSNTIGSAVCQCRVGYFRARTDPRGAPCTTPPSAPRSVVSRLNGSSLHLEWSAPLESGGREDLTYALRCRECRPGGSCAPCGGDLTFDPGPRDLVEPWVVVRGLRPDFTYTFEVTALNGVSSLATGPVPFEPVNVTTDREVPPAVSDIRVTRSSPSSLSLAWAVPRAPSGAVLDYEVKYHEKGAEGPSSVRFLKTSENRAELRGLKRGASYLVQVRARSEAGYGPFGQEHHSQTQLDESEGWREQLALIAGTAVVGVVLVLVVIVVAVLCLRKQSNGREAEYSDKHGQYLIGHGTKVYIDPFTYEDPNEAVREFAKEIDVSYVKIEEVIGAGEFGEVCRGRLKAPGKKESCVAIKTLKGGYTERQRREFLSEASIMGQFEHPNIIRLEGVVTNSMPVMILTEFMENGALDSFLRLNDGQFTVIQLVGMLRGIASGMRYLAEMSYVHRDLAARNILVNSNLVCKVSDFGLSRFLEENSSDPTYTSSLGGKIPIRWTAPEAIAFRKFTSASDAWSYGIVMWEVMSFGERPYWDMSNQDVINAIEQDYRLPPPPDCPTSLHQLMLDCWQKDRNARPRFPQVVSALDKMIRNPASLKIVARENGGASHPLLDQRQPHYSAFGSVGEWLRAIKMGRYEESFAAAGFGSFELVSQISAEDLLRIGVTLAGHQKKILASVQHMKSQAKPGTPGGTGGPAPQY

[5] = target: T3, PKG1a (Homo sapiens, UniProt Q13976); assay: biochemical; settings: read-out: % enzyme activity, 1 μM; Run 1, Run 2
T3 sequence (Q13976 1-671): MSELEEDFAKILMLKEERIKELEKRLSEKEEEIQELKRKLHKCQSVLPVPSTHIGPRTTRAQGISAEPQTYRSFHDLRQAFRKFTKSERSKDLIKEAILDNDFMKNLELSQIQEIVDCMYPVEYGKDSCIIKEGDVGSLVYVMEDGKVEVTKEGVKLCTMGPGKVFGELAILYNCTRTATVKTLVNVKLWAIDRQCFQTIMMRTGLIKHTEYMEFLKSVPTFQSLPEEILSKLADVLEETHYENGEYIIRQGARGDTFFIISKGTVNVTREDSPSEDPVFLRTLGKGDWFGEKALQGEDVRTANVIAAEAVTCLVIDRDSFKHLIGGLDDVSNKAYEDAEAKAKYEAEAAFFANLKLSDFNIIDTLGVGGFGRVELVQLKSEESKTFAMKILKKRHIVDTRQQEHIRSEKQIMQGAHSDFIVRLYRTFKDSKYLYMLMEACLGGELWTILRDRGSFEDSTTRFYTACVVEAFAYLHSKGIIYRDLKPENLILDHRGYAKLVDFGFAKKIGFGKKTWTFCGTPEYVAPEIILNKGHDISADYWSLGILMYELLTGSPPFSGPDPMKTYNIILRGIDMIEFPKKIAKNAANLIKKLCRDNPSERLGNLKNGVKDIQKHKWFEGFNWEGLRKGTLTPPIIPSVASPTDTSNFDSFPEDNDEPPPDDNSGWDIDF

[6] = target: CDK1/cyclin E (Homo sapiens, UniProt P06493); assay: biochemical; settings: read-out: % enzyme activity, 1 μM; Run 1, Run 2
CDK1/cyclin E, sequence (P24864 whole entry): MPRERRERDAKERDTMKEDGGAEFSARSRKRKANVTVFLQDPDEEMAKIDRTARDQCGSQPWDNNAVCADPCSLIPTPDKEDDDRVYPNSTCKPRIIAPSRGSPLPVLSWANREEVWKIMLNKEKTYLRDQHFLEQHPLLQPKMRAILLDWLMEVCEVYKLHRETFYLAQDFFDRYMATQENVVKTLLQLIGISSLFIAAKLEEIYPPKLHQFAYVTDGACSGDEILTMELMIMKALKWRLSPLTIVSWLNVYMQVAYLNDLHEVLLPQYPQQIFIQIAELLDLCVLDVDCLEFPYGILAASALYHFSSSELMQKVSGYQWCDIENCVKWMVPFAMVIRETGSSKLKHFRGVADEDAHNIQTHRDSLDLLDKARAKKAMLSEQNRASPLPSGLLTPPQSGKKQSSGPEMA
CDK1/cyclin E, sequence (P06493 whole entry): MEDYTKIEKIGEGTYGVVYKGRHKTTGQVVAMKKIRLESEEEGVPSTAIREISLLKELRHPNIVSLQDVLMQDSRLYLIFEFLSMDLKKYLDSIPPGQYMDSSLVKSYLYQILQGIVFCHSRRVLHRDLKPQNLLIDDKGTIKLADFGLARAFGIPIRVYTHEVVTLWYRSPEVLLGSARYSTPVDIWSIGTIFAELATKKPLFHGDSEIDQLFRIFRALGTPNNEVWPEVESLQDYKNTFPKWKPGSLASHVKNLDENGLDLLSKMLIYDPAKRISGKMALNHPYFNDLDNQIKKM

CDK9/cyclin T2, sequence (P50750 whole entry): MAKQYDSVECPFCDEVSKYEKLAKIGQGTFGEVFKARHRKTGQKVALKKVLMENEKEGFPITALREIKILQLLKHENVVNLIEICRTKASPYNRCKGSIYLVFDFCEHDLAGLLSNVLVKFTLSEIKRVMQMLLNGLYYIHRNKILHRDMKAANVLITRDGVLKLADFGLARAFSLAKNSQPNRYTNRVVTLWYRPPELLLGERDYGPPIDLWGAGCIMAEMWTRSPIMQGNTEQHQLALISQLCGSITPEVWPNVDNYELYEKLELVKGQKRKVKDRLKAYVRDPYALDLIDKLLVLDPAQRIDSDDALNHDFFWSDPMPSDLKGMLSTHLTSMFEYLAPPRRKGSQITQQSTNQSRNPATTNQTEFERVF
CDK9/cyclin T2, sequence (O60583 whole entry partner): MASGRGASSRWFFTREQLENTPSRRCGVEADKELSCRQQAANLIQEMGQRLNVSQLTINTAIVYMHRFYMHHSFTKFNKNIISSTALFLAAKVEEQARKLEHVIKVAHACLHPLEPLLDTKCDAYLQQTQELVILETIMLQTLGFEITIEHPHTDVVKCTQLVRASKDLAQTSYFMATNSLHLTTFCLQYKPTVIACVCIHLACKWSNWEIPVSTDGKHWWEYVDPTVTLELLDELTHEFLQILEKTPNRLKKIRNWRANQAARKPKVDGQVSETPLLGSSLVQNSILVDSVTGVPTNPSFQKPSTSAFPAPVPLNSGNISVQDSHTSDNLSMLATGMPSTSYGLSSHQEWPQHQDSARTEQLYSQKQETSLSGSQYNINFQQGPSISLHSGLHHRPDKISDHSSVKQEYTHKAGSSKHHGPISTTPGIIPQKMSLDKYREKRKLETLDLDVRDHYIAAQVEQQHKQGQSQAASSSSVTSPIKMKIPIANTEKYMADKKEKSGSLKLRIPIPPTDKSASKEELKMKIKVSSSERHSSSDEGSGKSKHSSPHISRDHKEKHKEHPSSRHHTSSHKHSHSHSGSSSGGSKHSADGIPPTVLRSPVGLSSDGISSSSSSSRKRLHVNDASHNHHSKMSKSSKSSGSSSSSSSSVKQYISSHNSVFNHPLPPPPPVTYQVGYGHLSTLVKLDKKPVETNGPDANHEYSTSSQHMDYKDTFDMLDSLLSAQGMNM
CDK5/p35, sequence (Q00535 whole entry): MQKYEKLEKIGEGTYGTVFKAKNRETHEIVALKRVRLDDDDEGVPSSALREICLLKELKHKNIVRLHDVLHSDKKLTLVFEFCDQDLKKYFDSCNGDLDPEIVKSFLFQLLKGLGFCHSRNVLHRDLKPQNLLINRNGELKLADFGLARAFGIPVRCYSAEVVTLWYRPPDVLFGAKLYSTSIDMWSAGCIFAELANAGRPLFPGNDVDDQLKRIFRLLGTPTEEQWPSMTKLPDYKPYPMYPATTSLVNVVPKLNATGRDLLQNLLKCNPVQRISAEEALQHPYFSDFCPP
CDK5/p35, sequence (Q15078 whole entry partner): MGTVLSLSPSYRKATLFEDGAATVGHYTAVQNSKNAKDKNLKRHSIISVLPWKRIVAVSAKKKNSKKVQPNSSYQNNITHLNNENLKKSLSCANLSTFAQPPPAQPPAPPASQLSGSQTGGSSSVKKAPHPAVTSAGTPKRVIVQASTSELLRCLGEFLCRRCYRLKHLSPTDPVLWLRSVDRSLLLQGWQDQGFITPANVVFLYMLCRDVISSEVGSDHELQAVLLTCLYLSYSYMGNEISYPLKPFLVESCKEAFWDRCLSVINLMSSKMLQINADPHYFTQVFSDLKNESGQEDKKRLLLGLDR

Structure (SMILES)	remaining activity at 1 µM [1]	remaining activity at 1 µM [2]	% enzyme activity [3]	remaining activity at 1 µM [4]	remaining activity at 1 µM [5]	remaining activity at 1 µM [6]
COc1cc(-c2cncc(-c3ccc(N4CCN(C)CC4)cc3)c2C)cc(F)c1C(N)=O [Compound 26a, 2-Fluoro-6-methoxy-4-(4-methyl-5-(4-(4-methylpiperazin-1-yl)phenyl)pyridin-3-yl)benzamide]	100%	96.2%	86.84%	94.7%	97.9%	98.3%
COc1cc(-c2cncc(-c3ccc(N4C[C@@H](C)N(C)[C@@H](C)C4)cc3)c2C)cc(F)c1C(N)=O [Compound 26c, 2-Fluoro-6-methoxy-4-(4-methyl-5-(4-((3R,5S)-3,4,5-trimethylpiperazin-1-yl)phenyl)pyridin-3-yl)benzamide]	102%	97.6%	94.54%	91.5%	102%	92.4%
